According to US20160023126A1, “SPRAY DRYING TECHNIQUES” (President and Fellows of Harvard College, priority 2010, published 2016):

Assays:
Type in all cases: physicochemical
[1] = SEM analysis of particle size and morphology of spray-dried drug; conditions: microfluidic spray dryer; danazol in IPA and pure IPA (antisolvent replaced by solvent)
Experimental: To evaluate the effect of microfluidic processing on particle size and morphology of the hydrophobic drug, no stabilizer or surfactant was added to influence the particle growth. […] Morphology and particle size of the processed drug was examined by scanning electron microscopy (“SEM”) analysis. […] The scale bar denotes 300 nm.
(§1) Processed danazol was collected at distances between 5 cm and 30 cm from the spray nozzle. For SEM analysis, the spray was collected on glass slides and coated with Pd/Pt. An Ultra55 Field Emission SEM (Zeiss) coupled with an EDX detector was used. The size distribution of the nanoparticles was determined by image analysis of SEM photographs using ImageJ. For XRPD analysis, samples were collected in an aluminum box over which the spray dryer was mounted. XPRD analysis was performed using a Scintag XDS2000 powder diffractometer (Scintag, Cupertino, California, USA) with Cu Ka (K-alpha) radiation at 40 kV and 30 mA. The XRD patterns were taken at room temperature in the range of 10°≦2θ≦50° (2 theta) with a scan rate of 1° min^−1 and a step size of 0.02°.

[2] = X-ray powder diffraction analysis (XRPD) of crystallinity
Excerpt: X-ray powder diffraction analysis (“XRPD”) was employed to determine the effect of spatial sampling on the crystallinity of danazol. Characteristic peaks at 20 (2 theta) of 15.8, 17.1 and 19.0 in the XRD pattern of unprocessed danazol were used as reference. In processed danazol, the intensity of the characteristic peaks decreased as the collection distance of the spray is increased. These figures show nanoparticles, approximately 20 nm to 60 nm in diameter, assembled in a dense network.
as §1

[3] = Energy dispersive X-ray (EDX) analysis of chemical composition after spray drying; conditions: unprocessed vs processed danazol, either solvent system (IPA/water, IPA/IPA)
Experimental: Scale bar denotes 300 nm.
as §1

C#C[C@]1(O)CC[C@H]2[C@@H]3CCC4=Cc5oncc5C[C@]4(C)[C@H]3CC[C@@]21C [danazol]
size and morphology of nanoparticles compared with IPA/water system [1]: identical size and morphology | crystallinity (XRPD) ([2]; conventional Mini Spray Dryer B 191, solution of danazol in IPA): retained | crystallinity (intensity of characteristic XRPD peaks) ([2]; microfluidic spray dryer, collection distance of the spray increased (5 cm to 30 cm)): initial crystallinity of the drug was not recovered | crystallinity (XRPD pattern) ([2]; microfluidic spray dryer, danazol in IPA with water, collected 5 cm from nozzle): crystalline aggregates | chemical composition of the drug during the spray drying process [3]: remained unchanged
